# Assay results: patent US9522947B2, “Peptidomimetic macrocycles” (Aileron Therapeutics, Inc., priority 2011, dated 2016)
# Positions of bridges follow the written chain, without caps; N, C: chain ends. Non-standard residues stand in square brackets, D forms with d. Residues, ends and D or L forms follow the SMILES beside them. R8 = C=CCCCCCC[C@@](C)(N)C(=O)O; S5 = C=CCCC[C@](C)(N)C(=O)O; Nle = CCCC[C@H](N)C(=O)O
# Columns and labels:
# Figure 9 = assay: Figure 9
# From the text: Table printed on a drawing sheet, Figure 9
# Footnotes: ** literature values
# First reader's note: The Tesamorelin rows are literature values, and their species, dose and route are printed inside the label cell.
# growth hormone = assay: Plasma PD study in rats: growth hormone production/release; type: in vivo, Sprague-Dawley rats; conditions: FIG. 10
# Method: Five peptidomimetic macrocycles of the invention (SP-1, SP-6, SP-8, SP-21, SP-32), as well as sermorelin, were studied to determine pharmacokinetic and pharmacodynamic parameters in rats. Male Sprague-Dawley rats (300 g, non-fasted, cannulated) were used. The study had three arms: IV administration, SC administration, and SC administration (vehicle control). For experiments using sermorelin, a dose level of 3 mg/kg IV/SC bolus was used (dose volume of 3 mL/kg dose and dose concentration of 1 mg/mL). The vehicle used was: 10 wt % N, N-Dimethylacetamide, 10 wt % DMSO, 2 wt % Solutol HS 15 in water for injection containing 45 mg/mL (4.5 wt %) Mannitol and 25 mM (0.38 wt %) Histidine (pH 7.5; 320 mOsm/kg). The peptide was first dissolved at high concentration in DMA and DMSO before a second dilution in Solutol vehicle.
# For experiments using peptidomimetic macrocycles, 0.1 mL of DMA and 0.1 mL of DMSO were used to combine with each mg of macrocycle (˜4.3-4.5 mg of macrocycle used in each experiment). Sonication was used to ensure complete solubilization. 0.8 mL of Solutol vehicle was used for each mg of macrocycle in DMA/DMSO. The solutions were mixed gently with pipet or light vortexing. Fresh vials were used for each day of dosing, and macrocycles were stored solid at −20° C. prior to formulation. […]
# [1] = cited from earlier work
Compound,AUCinf | (Figure 9) [ng·h/mL],Clp | (Figure 9) [mL/min/kg],MRT | hr (Figure 9) [h],Vdss | (Figure 9) [L/kg],t 1/2 | hr (Figure 9) [h],stimulation of growth hormone production (growth hormone),half-life of GHRH after intravenous injection [1] [h]
"CCCC[C@H](NC(=O)[C@@H](NC(=O)[C@H](CC(=O)O)NC(=O)[C@H](CCC(N)=O)NC(=O)[C@H](CC(C)C)NC(=O)[C@]1(C)CCCC=CCCCCCC[C@@](C)(NC(=O)[C@H](CC(C)C)NC(=O)[C@@H](NC(=O)[C@H](CCCCN)NC(=O)[C@H](CCCNC(=N)N)NC(=O)[C@H](Cc2ccc(O)cc2)NC(=O)[C@H](CO)NC(=O)[C@]2(C)CCCC=CCCC[C@](C)(NC(=O)[C@H](CC(=O)O)NC(=O)[C@@H](C)NC(=O)[C@@H](N)Cc3ccc(O)cc3)C(=O)N[C@@H]([C@@H](C)CC)C(=O)N[C@@H](Cc3ccccc3)C(=O)N[C@@H]([C@@H](C)O)C(=O)N2)C(C)C)C(=O)N[C@@H](CCC(N)=O)C(=O)N[C@@H](CC(C)C)C(=O)N[C@@H](CO)C(=O)N[C@@H](C)C(=O)N[C@@H](CCCNC(=N)N)C(=O)N[C@@H](CCCCN)C(=O)N1)[C@@H](C)CC)C(=O)N[C@@H](CO)C(=O)N[C@@H](CCCNC(=N)N)C(N)=O [SP-6] (H-Y[dA]D[S5]IFT[S5]SYRKVL[R8]QLSARK[S5]LQDI[Nle]SR-NH2; staple 4-8, 15-22)",23477,2.13,3.7,0.474,20.6,,
"CCCC[C@@H]1NC(=O)[C@H]([C@@H](C)CC)NC(=O)[C@H](CC(=O)O)NC(=O)[C@H](CCC(N)=O)NC(=O)[C@H](CC(C)C)NC(=O)[C@H](CC(C)C)NC(=O)[C@](C)(NC(=O)[C@H](CCCNC(=N)N)NC(=O)[C@H](C)NC(=O)[C@H](CO)NC(=O)[C@H](CC(C)C)NC(=O)[C@H](CCC(N)=O)NC(=O)CNC(=O)[C@H](CC(C)C)NC(=O)[C@@H](NC(=O)[C@H](CCCCN)NC(=O)[C@H](CCCNC(=N)N)NC(=O)[C@H](Cc2ccc(O)cc2)NC(=O)[C@H](CO)NC(=O)[C@]2(C)CCCC=CCCC[C@](C)(NC(=O)[C@H](CC(=O)O)NC(=O)[C@@H](C)NC(=O)[C@@H](N)Cc3ccc(O)cc3)C(=O)N[C@@H]([C@@H](C)CC)C(=O)N[C@@H](Cc3ccccc3)C(=O)N[C@@H]([C@@H](C)O)C(=O)N2)C(C)C)CCCCCCC=CCCC[C@@](C)(C(=O)N[C@@H](CCCNC(=N)N)C(N)=O)NC1=O [SP-8] (H-Y[dA]D[S5]IFT[S5]SYRKVLGQLSAR[R8]LLQDI[Nle][S5]R-NH2; staple 4-8, 21-28)",,,,,,stimulation of growth hormone production,
"CCCC[C@H](NC(=O)[C@@H](NC(=O)[C@]1(C)CCCC=CCCC[C@](C)(NC(=O)[C@H](CCCNC(=N)N)NC(=O)[C@H](C)NC(=O)[C@H](CO)NC(=O)[C@H](CC(C)C)NC(=O)[C@H](CCC(N)=O)NC(=O)CNC(=O)[C@H](CC(C)C)NC(=O)[C@@H](NC(=O)[C@]2(C)CCCC=CCCCCCC[C@@](C)(NC(=O)[C@H](C)NC(=O)[C@H](CC(=O)O)NC(=O)[C@@H](C)NC(=O)[C@@H](N)Cc3ccc(O)cc3)C(=O)N[C@@H](Cc3ccccc3)C(=O)N[C@@H]([C@@H](C)O)C(=O)N[C@@H](CC(N)=O)C(=O)N[C@@H](CO)C(=O)N[C@@H](Cc3ccc(O)cc3)C(=O)N[C@@H](CCCNC(=N)N)C(=O)N2)C(C)C)C(=O)N[C@@H](CC(C)C)C(=O)N[C@@H](CC(C)C)C(=O)N[C@@H](CCC(N)=O)C(=O)N1)[C@@H](C)CC)C(=O)N[C@@H](CO)C(=O)N[C@@H](CCCNC(=N)N)C(N)=O [SP-21] (H-Y[dA]DA[R8]FTNSYR[S5]VLGQLSAR[S5]LLQ[S5]I[Nle]SR-NH2; staple 5-12, 21-25)",,1.65,5.3,0.524,10.1,,
CCCC[C@H](NC(=O)[C@@H](NC(=O)[C@H](CC(=O)O)NC(=O)[C@H](CCC(N)=O)NC(=O)[C@H](CC(C)C)NC(=O)[C@H](CC(C)C)NC(=O)[C@H](CCCCN)NC(=O)[C@H](CCCNC(=N)N)NC(=O)[C@]1(C)CCCC=CCCCCCC[C@@](C)(NC(=O)[C@H](CCCNC(=N)N)NC(=O)[C@H](Cc2ccc(O)cc2)NC(=O)[C@H](CO)NC(=O)[C@H](CC(N)=O)NC(=O)[C@@H](NC(=O)[C@H](Cc2ccccc2)NC(=O)[C@@H](NC(=O)[C@H](C)NC(=O)[C@H](CC(=O)O)NC(=O)[C@@H](C)NC(=O)[C@@H](N)Cc2ccc(O)cc2)[C@@H](C)CC)[C@@H](C)O)C(=O)N[C@@H](C(C)C)C(=O)N[C@@H](CC(C)C)C(=O)NCC(=O)N[C@@H](CCC(N)=O)C(=O)N[C@@H](CC(C)C)C(=O)N[C@@H](CO)C(=O)N1)[C@@H](C)CC)C(=O)N[C@@H](CO)C(=O)N[C@@H](CCCNC(=N)N)C(N)=O [SP-32] (H-Y[dA]DAIFTNSYR[R8]VLGQLS[S5]RKLLQDI[Nle]SR-NH2; staple 12-19),,1.35,2.3,0.19,9.7,,
"CC/C=C/CC(=O)N[C@@H](Cc1ccc(O)cc1)C(=O)N[C@@H](C)C(=O)N[C@@H](CC(=O)O)C(=O)N[C@@H](C)C(=O)N[C@H](C(=O)N[C@@H](Cc1ccccc1)C(=O)N[C@H](C(=O)N[C@@H](CC(N)=O)C(=O)N[C@@H](CO)C(=O)N[C@@H](Cc1ccc(O)cc1)C(=O)N[C@@H](CCCNC(=N)N)C(=O)N[C@@H](CCCCN)C(=O)N[C@H](C(=O)N[C@@H](CC(C)C)C(=O)NCC(=O)N[C@@H](CCC(N)=O)C(=O)N[C@@H](CC(C)C)C(=O)N[C@@H](CO)C(=O)N[C@@H](C)C(=O)N[C@@H](CCCNC(=N)N)C(=O)N[C@@H](CCCCN)C(=O)N[C@@H](CC(C)C)C(=O)N[C@@H](CC(C)C)C(=O)N[C@@H](CCC(N)=O)C(=O)N[C@@H](CC(=O)O)C(=O)N[C@H](C(=O)N[C@@H](CCSC)C(=O)N[C@@H](CO)C(=O)N[C@@H](CCCNC(=N)N)C(=O)N[C@@H](CCC(N)=O)C(=O)N[C@@H](CCC(N)=O)C(=O)NCC(=O)N[C@@H](CCC(=O)O)C(=O)N[C@@H](CO)C(=O)N[C@@H](CC(N)=O)C(=O)N[C@@H](CCC(N)=O)C(=O)N[C@@H](CCC(=O)O)C(=O)N[C@@H](CCCNC(=N)N)C(=O)NCC(=O)N[C@@H](C)C(=O)N[C@@H](CCCNC(=N)N)C(=O)N[C@@H](C)C(=O)N[C@@H](CCCNC(=N)N)C(=O)N[C@@H](CC(C)C)C(N)=O)[C@@H](C)CC)C(C)C)[C@@H](C)O)[C@@H](C)CC [Tesamorelin, dog 0.1 µg/kg IV**]",5301,,,,0.4,,
"GHRH: Human GHRH (Growth Hormone-Releasing Hormone), a 44-amino-acid peptide",,,,,,,0.167 to 0.2
